Measurements as given in patent US7723070B2, “Overexpression of aminoacyl-tRNA synthetases for efficient production of engineered proteins containing amino acid analogues” (California Institute of Technology, priority 2000, dated 2010).
Read-outs that look alike come from different tables or passages of the source.

System: CAG18491/pQE15-MRS/pREP4
Assay type: cell-based, E. coli
Conditions: for level of protein synthesis in modified host over conventional host (Western blot, laser densitometry): 5-ml cultures, versus CAG18491/pQE15/pREP4; for yield of mDHFR from large-scale cultures: preliminary results
Method: Similarly, a bacterial host capable of overexpressing MetRS was produced by transforming E. coli strains CAG18491 (Novagen, Inc., Madison, Wis., USA), a methionine auxotroph, with repressor plasmid pREP4 and expression plasmid pQE15-MRS, as described for the B834(DE3) strain. A control bacterial host, which produces only mDHFR and normal cellular levels of MetRS, was prepared by transforming CAG18491 with pREP4 and pQE15.
Methionine analogues were synthesized via alkylation of diethylacetamidomalonate, as previously described (As described in Example I, infra; J. C. M. van Hest, D. A. Tirrell, FEBS Lett. 1998, 428, 68-70). Cultures of B834(DE3)/pQE15-MRS/pREP4 or B834(DE3)/pQE15/pREP4 or CAG18491/pQE15-MRS/pREP4 or CAG18491/pQE15/pREP4 in M9AA media were grown to an optical density of 0.90, and the cells were sedimented by centrifugation. The M9AA medium was prepared by supplementing sterile M9 medium with […] of each of the amino acids, 1 mM MgSO4, 0.2 wt % glucose, 1 mg/ml thiamine chloride, and […] calcium chloride. The antibiotics ampicillin and kanamycin were added at concentrations of 200 mg/l and 35 mg/l, respectively.
Cells were washed three times with M9 salts and resuspended to an optical density of 0.90 in M9 test media containing 19 amino acids plus 1) neither methionine nor analogue (negative control); 2) methionine (60 mg/liter, positive control); or 3) an analogue of interest (60 mg/liter). To test the effect of increasing the level of supplementation of the analogues, a set of experiments was also conducted in which the medium was supplemented with 500 mg/liter of methionine or the amino acid analogue. Expression of mDHFR was induced by addition of 0.4 mM isopropyl β-D-thiogalactopyranoside (IPTG), and protein synthesis was monitored after 4.5 hours.
Buffers and media were prepared according to standard protocols (Ausubel, F. M.; Brent, R.; Kingston, R. E.; Moore, D. D.; Seidman, J. G.; Smith, J. A.; Struhl, K., Eds. Current Protocols in Molecular Biology; John Wiley and Sons: New York, 1998). The E. coli methionine auxotroph CAG18491 (λ^−, rph-1, metE3079.:Tn10) was transformed with plasmids pQE15 and pREP4 (Qiagen), to obtain the expression host CAG18491/pQE15/pREP4. […] Both bacterial expression hosts produce the target protein mDHFR under control of a bacteriophage T5 promoter; the modified host also expresses extra copies of the MetRS gene under control of the constitutive metG p1 promoter (Dardel, F.; Panvert, M.; Fayat, G. Mol. Gen. Genet. 1990, 223, 121.133).
M9AA medium (100 mL) supplemented with 1 mM MgSO4 0.2 wt % glucose, 1 mg/L thiamine chloride and the antibiotics ampicillin (200 mg/L) and kanamycin (35 mg/L) was inoculated with the appropriate E. coli strain (CAG18491/pQE15/pREP4 or CAG18491/pQE15-MRS/pREP4) and grown overnight at 37° C. This culture was used to inoculate 900 mL M9AA medium supplemented as described. The cells were grown to an optical density at 600 nm (OD600) of approximately 0.9 and a medium shift was performed. The cells were sedimented for 10 min at 3030 g at 4° C., the supernatant was removed, and the cell pellet was washed twice with 600 mL of M9 medium. Cells were resuspended in 1000 mL of the M9AA medium described above, without methionine, and supplemented with 20 mg/L of the L-isomer of either 1, 2, 3, or 9. Protein synthesis was induced by addition of isopropyl-β-D-thiogalactopyranoside (IPTG) to a final concentration of 0.4 mM. Samples (1 mL) were collected after 4.5 hours, the OD600 measured, and cells resuspended with distilled water to yield a normalized OD600 of 20.

Compound: C=CCCC(N)C(=O)O (racemic) [Analogue 2, DL-2-amino-5-hexenoic acid]
- level of protein synthesis in modified host over conventional host (Western blot, laser densitometry): approximately 1.5 fold
- yield of mDHFR from large-scale cultures: approximately 35 mg/L

Compound: CCC[C@H](N)C(=O)O [Analogue 8, L-norvaline]
- mDHFR expression (SDS-PAGE) (500 mg/liter): able to produce the target protein

Compound: CCCCCC(N)C(=O)O (racemic) [Analogue 7, DL-2-aminoheptanoic acid]
- mDHFR expression (SDS-PAGE) (500 mg/liter): able to produce the target protein

Compound: C/C=C\CC(N)C(=O)O (racemic) [Analogue 4, cis-2-amino-4-hexenoic acid]
- mDHFR expression (SDS-PAGE) (500 mg/liter): able to produce the target protein

Compound: CCCC[C@H](N)C(=O)O [Analogue 9, L-norleucine]
- level of protein synthesis in modified host over conventional host (Western blot, laser densitometry): approximately 1.4 fold
- yield of mDHFR from large-scale cultures: approximately 35 mg/L

Compound: 2-butynylglycine [Analogue 11]
- mDHFR expression (SDS-PAGE) (60 mg/L): strong induction of mDHFR

Compound: C=CCC(N)C(=O)O (centres unmarked) [Analogue 12, allylglycine]
- mDHFR expression (SDS-PAGE) (500 mg/liter): able to produce the target protein

Compound: C#CCCC(N)C(=O)O (racemic) [Analogue 3, DL-homopropargylglycine]
- level of protein synthesis in modified host over conventional host (Western blot, laser densitometry): does not exhibit higher levels of protein synthesis

Compound: CSCC[C@H](N)C(=O)O [Analogue 1, L-methionine, reference compound]
- level of protein synthesis in modified host over conventional host (Western blot, laser densitometry): does not exhibit higher levels of protein synthesis
